In patent publication US20140255361A1, “ESTROGEN-RECEPTOR BASED LIGAND SYSTEM FOR REGULATING PROTEIN STABILITY” (The Board of Trustees Of The Leland Stanford Junior …, priority 2013, published 2014):
Changes are numbered by the printed parent chain. Where two headings read alike, the source gives them in different places.

Key:
GFP-ERLID fusion protein = biological target: T1, GFP-ERLID fusion protein (Homo sapiens, UniProt P03372)
T1 sequence (P03372 with tags, fused parts or gaps): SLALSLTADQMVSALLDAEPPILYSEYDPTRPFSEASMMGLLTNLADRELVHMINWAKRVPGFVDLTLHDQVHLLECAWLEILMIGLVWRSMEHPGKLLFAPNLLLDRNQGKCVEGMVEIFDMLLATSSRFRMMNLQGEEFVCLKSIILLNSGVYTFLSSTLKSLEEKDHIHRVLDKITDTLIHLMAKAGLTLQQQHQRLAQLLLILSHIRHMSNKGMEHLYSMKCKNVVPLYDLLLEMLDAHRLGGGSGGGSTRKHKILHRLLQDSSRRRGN

HA-hUBC13-ERLID = HA-hUBC13-ERLID (Homo sapiens, UniProt P03372)
HA-hRPA2-ERLID = HA-hRPA2-ERLID (Homo sapiens, UniProt P03372)
[1] = biological target: T2, four point mutant of the estrogen receptor ligand binding domain (L384M, M421G, G521R and Y437S) fused to GFP (Homo sapiens, UniProt P03372, G521R/L384M/M421G/Y537S); settings: cross-hatched bars, FIG. 7A
T2 sequence (P03372 with tags, fused parts or gaps L384M/M421G/G521R/Y537S): T1 sequence (P03372 with tags, fused parts or gaps) with L80M, M117G, G217R, Y233S

HA-Bax-ERLID = HA-Bax-ERLID (Homo sapiens, UniProt P03372)
GFP-ERLID = GFP-ERLID (Homo sapiens, UniProt P03372)
[2] = biological target: T3, estrogen receptor ligand binding domain mutants (four and six mutations) (Homo sapiens, UniProt P03372, G521R/L384M/M421G/N519S/T371A/Y537S); experiment: Drug-dependent stability of ERLBD mutant clones with YFP or GFP reporter; format: cell-based; settings: relative to the parent ESR1 sequence
T3 construct: residues 305-549 of estrogen receptor-1, ERS1; YFP or GFP reporter
T3 sequence (P03372 305-549 T371A/L384M/M421G/N519S/G521R/Y537S): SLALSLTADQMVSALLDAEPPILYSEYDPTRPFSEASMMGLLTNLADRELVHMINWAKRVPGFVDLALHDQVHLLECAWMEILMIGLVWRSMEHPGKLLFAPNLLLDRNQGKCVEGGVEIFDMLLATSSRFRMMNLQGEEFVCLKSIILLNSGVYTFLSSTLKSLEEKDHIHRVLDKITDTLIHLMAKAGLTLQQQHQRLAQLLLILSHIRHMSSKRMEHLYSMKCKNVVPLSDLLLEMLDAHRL

wild-type ER LBDs = settings: cited from earlier work
GFP-LID = experiment: Stability of GFP-LID fusion protein by flow cytometry (MFI) in NIH3T3 cells; format: cell-based; settings: 1 μM Shield-1, 24 hours, FIG. 2
Text: (§1) In studies conducted in support of the invention, and with reference to the Materials and Methods set forth in the Examples section below, the stabilities of two LID domain fusion proteins, a first generation construct based on the FKBP protein, here called “GFP-LID” and a next-generation construct having improved characteristics, here called “GFP-LID #15” were compared. […] For this study, NIH3T3 fibroblast cells were infected with retrovirus expressing GFP-LID or GFP-LID #15. Transduced NIH3T3 cells were treated with or without 1 μM Shield-1 for 24 hours. The fluorescence intensities of these GFP fusions were analyzed by flow cytometry. The median fluorescence intensity (MFI) was used to determine the stability of the GFP fusion proteins.
(§2) The INX ecotropic packaging cell line was transfected using standard Lipofectamine 2000 protocols. Viral supernatants were harvested 48 h post-transfection, filtered. NIH3T3 cells were incubated with the retroviral supernatants supplemented with 4 μg/ml polybrene for 4 h at 37° C. Cells were washed once with PBS and cultured in growth media for 48 hrs to allow for viral integration, then assayed as described.
(§3) Twenty-four hours prior to analysis, transduced NIH3T3 cells were plated at 1×10^5 cells per well of a 12-well plate. […] Cells were analyzed at the Stanford Shared FACS Facility using Vantoo or LSRII with 10,000 events represented.

[3] = tested on: YFP-FKBP12 LID domain fusion protein; experiment: FACS screen of YFP fused to extended FKBP12 (LID domain) in NIH3T3 cells; format: cell-based, mouse
Text: Human […] protein was modified to include a 19-residue peptide extension at the C-terminus of the FKBP12 protein. Genetic diversity was engineered into this C-terminal extension using synthetic oligonucleotides and PCR, and this library of extended FKBP genes was fused to the 3′-end of the YFP gene. A library of plasmids was stably introduced into NIH3T3 cells using retrovirus, and FACS was used to screen the transduced cells for cells expressing YFP in the absence of the small molecule ligand Shield-1. […] This domain is identified herein by SEQ ID NO: 1.

GFP-LID #15 = experiment: Stability of GFP-LID #15 fusion protein by flow cytometry (MFI) in NIH3T3 cells; format: cell-based; settings: 1 μM Shield-1, 24 hours, FIG. 2
Text: as §1, §2, §3

[4] = SEQ ID NO: 3 fused to GFP, open bars, FIG. 7A

In the case of C[C@]12CC[C@@H]3c4ccc(O)cc4C[C@@H](CCCCCCCCC[S+]([O-])CCCC(F)(F)C(F)(F)F)[C@H]3[C@@H]1CC[C@@H]2O (stereo partly shown) [fulvestrant], the “stability of GFP-ERLID fusion protein” value (GFP-ERLID fusion protein; 10 μM fulvestrant, NIH3T3 cells, FIG. 4) is reported as “induced degradation” and the “stability of wild type GFP-ERLID fusion protein (MFI)” value (GFP-ERLID fusion protein; [4]) is reported as “destabilization”.
For 4-hydroxytamoxifen [4-OHT], the “level of fusion protein by Western blot” value (HA-hUBC13-ERLID) was “destabilized”, the “level of fusion protein by Western blot” value (HA-hRPA2-ERLID) was “destabilized” and the “stability of mutant fusion protein (MFI)” value [1] was “destabilization”. The “stability of GFP-ERLBD (MFI) as a function of amount of ligand” value (GFP-ERLID fusion protein) was “dose dependent destabilization”, the “stability of GFP-ERLID fusion protein (MFI)” value (GFP-ERLID fusion protein) was “induces degradation” and the “stability of fusion protein (MFI) after E2 washout with 4-hydroxytamoxifen in the wash solution (E2 wo+4OHT)” value (GFP-ERLID fusion protein) was “destabilizes”. The “stability of fusion protein (MFI) after ligand exposure” value (GFP-ERLID fusion protein) was “destabilizes”, the “stability of wild type GFP-ERLID fusion protein (MFI)” value (GFP-ERLID fusion protein) was “destabilization” and the “level of fusion protein by Western blot” value (HA-Bax-ERLID) was “destabilized”. For the same compound, the “level of fusion protein by Western blot” value (GFP-ERLID) was “destabilized”.
In the case of O=C1CCC2(Cc3ccc(Cl)cc3)Cc3cc(O)ccc3C2=C1c1ccc(OCCN2CCCCC2)cc1 (stereo not shown) [CMP8, 9a-(4-Chlorobenzyl)-7-hydroxy-4-[4-(2-piperidin-1-ylethoxy)phenyl]-1,2,9,9a-tetrahydro-3H-fluoren-3-one], the “dynamic range of stability in the presence of ligand” value [2] is listed as “large dynamic”, the “binding to wild-type ER LBDs” value (wild-type ER LBDs) is listed as “does not bind well” and the “stability of mutant fusion protein (MFI)” value [1] is listed as “destabilization”. The “stability of wild type GFP-ERLID fusion protein (MFI)” value (GFP-ERLID fusion protein; [4]) was “destabilization”.
For CC[C@H](C(=O)N1CCCC[C@H]1C(=O)O[C@H](CCc1ccc(OC)c(OC)c1)c1cccc(OCCN2CCOCC2)c1)c1cc(OC)c(OC)c(OC)c1 [Shield-1], the “stability of GFP fusion protein (median fluorescence intensity)” value (GFP-LID) was “destabilized”, the “YFP levels on addition of ligand” value [3] was “dropped significantly” and the “stability of GFP fusion protein (median fluorescence intensity)” value (GFP-LID #15) was “destabilized”.
